“And” between values parts separate entries of the source, which are not always exact repeats. Equal entries are not always repeated. Inconclusive results and toxic doses are left out.
Test system: P388 leukemia ip, CD2F1 mice, survival T/C
Experiment: NCI In Vivo Anticancer Drug Screen. Data for tumor model P388 Leukemia (intraperitoneal) in CD2F1 (CDF1) mice
Conditions: endpoint: median survival time, higher = longer survival
How it was run: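 Mice carrying the transplanted tumor received test compound or vehicle. Survival was recorded in each group, and the value is the treated-group measurement divided by that of the vehicle-treated control group.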

[1] = dose: 2.5 mg/kg/injection, schedule: Q01DX009 (ip), vehicle: Klucel (hydroxypropylcellulose) (HPC)
[2] = dose: 5.0 mg/kg/injection, schedule: Q01DX009 (ip), vehicle: Klucel (hydroxypropylcellulose) (HPC)
[3] = dose: 50.0 mg/kg/injection, schedule: Q01DX005 (ip), vehicle: saline with Tween-80
[4] = dose: 100.0 mg/kg/injection, schedule: Q01DX005 (ip), vehicle: saline with Tween-80
[5] = dose: 50.0 mg/kg/injection, schedule: Q01DX005 (ip), vehicle: Klucel (hydroxypropylcellulose) (HPC)
[6] = dose: 100.0 mg/kg/injection, schedule: Q01DX005 (ip), vehicle: Klucel (hydroxypropylcellulose) (HPC)
[7] = dose: 200.0 mg/kg/injection, schedule: Q01DX005 (ip), vehicle: Klucel (hydroxypropylcellulose) (HPC)

`C1CCC2[N-]CC3CCCCC3[N-]CC3CCCCC3[N-]CC3CCCCC3[N-]CC2C1.[Cu]` (configuration not stated) was tested, and the T/C (dose: 0.39 mg/kg/injection, schedule: Q01DX009 (ip), vehicle: saline) was 105 % of control, the T/C (dose: 0.78 mg/kg/injection, schedule: Q01DX009 (ip), vehicle: Klucel (hydroxypropylcellulose) (HPC)) was 121 % of control and the T/C (dose: 0.78 mg/kg/injection, schedule: Q01DX009 (ip), vehicle: saline) was 123 % of control. For the same compound, the T/C (dose: 1.56 mg/kg/injection, schedule: Q01DX009 (ip), vehicle: saline) was 123 % of control, the T/C (dose: 1.56 mg/kg/injection, schedule: Q01DX009 (oral), vehicle: Klucel (hydroxypropylcellulose) (HPC)) was 89 % of control and the T/C (dose: 3.12 mg/kg/injection, schedule: Q01DX009 (oral), vehicle: Klucel (hydroxypropylcellulose) (HPC)) was 99 % of control. The T/C (dose: 6.25 mg/kg/injection, schedule: Q01DX009 (oral), vehicle: Klucel (hydroxypropylcellulose) (HPC)) was 99 % of control, the T/C (dose: 12.5 mg/kg/injection, schedule: Q01DX009 (ip), vehicle: Klucel (hydroxypropylcellulose) (HPC)) was 119 % of control and the T/C (dose: 12.5 mg/kg/injection, schedule: Q01DX009 (oral), vehicle: Klucel (hydroxypropylcellulose) (HPC)) was 93 % of control and 98 % of control. For the same compound, the T/C (dose: 25.0 mg/kg/injection, schedule: Q01DX009 (oral), vehicle: Klucel (hydroxypropylcellulose) (HPC)) was 106 % of control and 91 % of control, the T/C (dose: 50.0 mg/kg/injection, schedule: Q01DX009 (oral), vehicle: Klucel (hydroxypropylcellulose) (HPC)) was 93 % of control and the T/C (dose: 100.0 mg/kg/injection, schedule: Q01DX009 (oral), vehicle: Klucel (hydroxypropylcellulose) (HPC)) was 93 % of control and 98 % of control. The T/C (dose: 200.0 mg/kg/injection, schedule: Q01DX009 (oral), vehicle: Klucel (hydroxypropylcellulose) (HPC)) was 88 % of control.

In the case of `COc1cccc2c1C(=O)c1c(O)c3c(c(O)c1C2=O)C[C@@](O)(C(C)O)C[C@@H]3OC1CC(N2CCOCC2C#N)C(O)C(C)O1` (some centres not stated), the T/C (dose: 0.03 mg/kg/injection, schedule: Q04DX003 (ip), vehicle: water) is reported as 120 % of control, the T/C (dose: 0.1 mg/kg/injection, schedule: Q04DX003 (ip), vehicle: water) is reported as 166 % of control and the T/C (dose: 12.5 micrograms/kg/injection, schedule: Q04DX003 (ip), vehicle: water) is reported as 107 % of control. The T/C (dose: 25.0 micrograms/kg/injection, schedule: Q04DX003 (ip), vehicle: water) was 101 % of control, the T/C (dose: 50.0 micrograms/kg/injection, schedule: Q04DX003 (ip), vehicle: water) was 106 % of control and the T/C (dose: 100.0 micrograms/kg/injection, schedule: Q04DX003 (ip), vehicle: water) was 120 % of control.

`CN1CCC(O)CC1C(=O)O` (configuration not stated) was tested, and the T/C (dose: 50.0 mg/kg/injection, schedule: Q01DX009 (ip), vehicle: saline) was 98 % of control, the T/C (dose: 100.0 mg/kg/injection, schedule: Q01DX009 (ip), vehicle: saline) was 104 % of control and the T/C (dose: 200.0 mg/kg/injection, schedule: Q01DX009 (ip), vehicle: saline) was 105 % of control.

In the case of `[C-]#[N+]C1(c2ccccc2)C2CC3CC(C2)CC1C3` (configuration not stated), the T/C (dose: 100.0 mg/kg/injection, schedule: Q04DX003 (ip), vehicle: Klucel (hydroxypropylcellulose) (HPC)) is reported as 106 % of control, the T/C (dose: 200.0 mg/kg/injection, schedule: Q04DX003 (ip), vehicle: Klucel (hydroxypropylcellulose) (HPC)) is reported as 100 % of control and the T/C (dose: 400.0 mg/kg/injection, schedule: Q04DX003 (ip), vehicle: Klucel (hydroxypropylcellulose) (HPC)) is reported as 106 % of control.

For `CC(=O)OC1CC(O)C23COC(O)C1(C)C2CC(O)C1(C)C3C(=O)C(O)C2(C)C(c3ccoc3)CC3OC321` (configuration not stated), the T/C (dose: 0.13 mg/kg/injection, schedule: Q01DX009 (ip), vehicle: saline + alcohol) was 91 % of control, the T/C (dose: 0.25 mg/kg/injection, schedule: Q01DX009 (ip), vehicle: saline + alcohol) was 93 % of control and the T/C (dose: 0.5 mg/kg/injection, schedule: Q01DX009 (ip), vehicle: saline + alcohol) was 90 % of control. For the same compound, the T/C (dose: 1.0 mg/kg/injection, schedule: Q01DX009 (ip), vehicle: saline + alcohol) was 94 % of control, the T/C (dose: 1.25 mg/kg/injection, schedule: Q01DX009 (ip), vehicle: Klucel (hydroxypropylcellulose) (HPC)) was 104 % of control and the T/C [1] was 95 % of control.

In the case of `N#CC(NCc1ccccc1)c1ccc2c(c1)OCO2` (configuration not stated), the T/C (dose: 25.0 mg/kg/injection, schedule: Q01DX009 (ip), vehicle: saline with Tween-80) is reported as 90 % of control.

With `COc1cc(C=Nc2ccc(-n3ccnc3C)cc2)ccc1N(CCCl)CCCl` the T/C [2] was 170 % of control, the T/C (dose: 10.0 mg/kg/injection, schedule: Q01DX009 (ip), vehicle: Klucel (hydroxypropylcellulose) (HPC)) was 181 % of control and the T/C (dose: 20.0 mg/kg/injection, schedule: Q01DX009 (ip), vehicle: Klucel (hydroxypropylcellulose) (HPC)) was 106 % of control.

With `C=CCNC(=S)NNC(=O)CNC(c1ccc(OC)cc1)C(CC)c1ccc(OC)cc1` (configuration not stated) the T/C (dose: 100.0 mg/kg/injection, schedule: Q01DX001 (ip), vehicle: saline with Tween-80) was 99 % of control and the T/C (dose: 200.0 mg/kg/injection, schedule: Q01DX001 (ip), vehicle: saline with Tween-80) was 110 % of control.

With `Cc1c[n+]2ccc3ccccc3c2c2ccccc12` the T/C (dose: 2.2 mg/kg/injection, schedule: Q01DX009 (ip), vehicle: Klucel (hydroxypropylcellulose) (HPC)) was 119 % of control, the T/C [1] was 116 % of control and the T/C (dose: 3.3 mg/kg/injection, schedule: Q01DX009 (ip), vehicle: Klucel (hydroxypropylcellulose) (HPC)) was 120 % of control. The T/C [2] was 122 % of control.

`Nc1nc2nc(/N=N/SCCC(=O)O)[nH]c2c(=O)[nH]1` was tested, and the T/C [3] was 105 % of control and the T/C [4] was 108 % of control.

`CCOC(=O)C(Cc1ccc([N+](=O)[O-])cc1)N1C(=O)c2ccccc2C1=O` (configuration not stated) was tested, and the T/C (dose: 50.0 mg/kg/injection, schedule: Q01DX009 (ip), vehicle: distilled water + Tween-80 + alcohol) was 98 % of control, the T/C (dose: 100.0 mg/kg/injection, schedule: Q01DX009 (ip), vehicle: distilled water + Tween-80 + alcohol) was 89 % of control and the T/C (dose: 200.0 mg/kg/injection, schedule: Q01DX009 (ip), vehicle: distilled water + Tween-80 + alcohol) was 92 % of control.

In the case of `c1ccc2nc3c(nc2c1)CCCC3`, the T/C [5] is reported as 96 % of control, the T/C [6] is reported as 109 % of control and the T/C [7] is reported as 100 % of control.

With `[N-]=[N+]=NCCN(Cc1ccccc1)Cc1ccccc1` the T/C [3] was 104 % of control, the T/C [4] was 104 % of control and the T/C (dose: 200.0 mg/kg/injection, schedule: Q01DX005 (ip), vehicle: saline with Tween-80) was 114 % of control.

For `COc1cccc(/C=N\NC(=O)C(=O)N/N=C\c2cccc(OC)c2O)c1O`, the T/C (dose: 50.0 mg/kg/injection, schedule: Q01DX009 (ip), vehicle: Klucel (hydroxypropylcellulose) (HPC)) was 86 % of control, the T/C (dose: 100.0 mg/kg/injection, schedule: Q01DX009 (ip), vehicle: Klucel (hydroxypropylcellulose) (HPC)) was 89 % of control and the T/C (dose: 200.0 mg/kg/injection, schedule: Q01DX009 (ip), vehicle: Klucel (hydroxypropylcellulose) (HPC)) was 92 % of control.

In the case of `C=C1C2CCC3C(CCC4C35CCC[C@]4(C)CN3CCO[C@H]35)(C2)[C@H]1O` (some centres not stated), the T/C (dose: 1.0 mg/kg/injection, schedule: Q01DX009 (ip), vehicle: Klucel (hydroxypropylcellulose) (HPC)) is reported as 100 % of control, the T/C (dose: 2.0 mg/kg/injection, schedule: Q01DX009 (ip), vehicle: Klucel (hydroxypropylcellulose) (HPC)) is reported as 98 % of control and the T/C (dose: 4.0 mg/kg/injection, schedule: Q01DX009 (ip), vehicle: Klucel (hydroxypropylcellulose) (HPC)) is reported as 106 % of control. For the same compound, the T/C (dose: 8.0 mg/kg/injection, schedule: Q01DX009 (ip), vehicle: Klucel (hydroxypropylcellulose) (HPC)) was 96 % of control.

`COc1ccc(N/N=C(/c2ccccc2)c2noc(-c3ccccc3)n2)cc1` was tested, and the T/C [5] was 101 % of control, the T/C [6] was 94 % of control and the T/C [7] was 93 % of control.

For `COc1cc2oc(=O)cc(C)c2cc1N`, the T/C (dose: 50.0 mg/kg/injection, schedule: Q04DX002 (ip), vehicle: suspension in saline) was 109 % of control, the T/C (dose: 100.0 mg/kg/injection, schedule: Q04DX002 (ip), vehicle: suspension in saline) was 99 % of control and the T/C (dose: 200.0 mg/kg/injection, schedule: Q04DX002 (ip), vehicle: suspension in saline) was 106 % of control.

With `CC(=O)OC(OC(C)=O)c1ccc([N+](=O)[O-])c([N+](=O)[O-])c1` the T/C (dose: 12.5 mg/kg/injection, schedule: Q01DX010 (ip), vehicle: saline) was 104 % of control, the T/C (dose: 25.0 mg/kg/injection, schedule: Q01DX010 (ip), vehicle: saline) was 109 % of control and the T/C (dose: 50.0 mg/kg/injection, schedule: Q01DX010 (ip), vehicle: saline) was 100 % of control.

`CCN(CC)CCNc1ccc(COC(=O)NC)c2oc3ccc(OC(=O)NC)cc3c(=O)c12` was tested, and the T/C (dose: 3.13 mg/kg/injection, schedule: Q01DX005 (ip), vehicle: Klucel (hydroxypropylcellulose) (HPC)) was 123 % of control.

For `Cc1sc2c(c1C)c(=O)[nH]c1c(C#N)c(-c3ccc(Cl)cc3)cn12`, the T/C (dose: 60.0 mg/kg/injection, schedule: Q01DX005 (ip), vehicle: saline with Tween-80) was 86 % of control and 90 % of control, the T/C (dose: 120.0 mg/kg/injection, schedule: Q01DX005 (ip), vehicle: saline with Tween-80) was 89 % of control and the T/C (dose: 240.0 mg/kg/injection, schedule: Q01DX005 (ip), vehicle: saline with Tween-80) was 94 % of control.
